Test results from patent publication US9539301B2, “Melanotropin ligands for skin care” (THE ARIZONA BOARD OF REGENTS ON BEHALF OF THE UNIVERSITY OF …, priority 2011, dated 2017).
“Also recorded” adds a separate entry of the source. Square brackets hold non-standard residues; d marks the D form. Peptide text beside a SMILES is read from it. d2Nal = N[C@H](Cc1ccc2ccccc2c1)C(=O)O; Nle = CCCC[C@H](N)C(=O)O

Experiments:
MC1R = MC1R (Homo sapiens, UniProt Q01726); settings: cited from earlier work
MC5R = MC5R (Homo sapiens, UniProt P33032); settings: footnote: value denotes an EC50; read-out: EC50 MC5R (values derived from literature); cited from earlier work
MC4R = MC4R (Homo sapiens, UniProt P32245); settings: footnote: value denotes an EC50; read-out: EC50 MC4R (values derived from literature); cited from earlier work
[1] = mouse, in vivo, iv, 5 nmol/kg
Method: (§1) Tumors, kidneys and liver were excised, rinsed with PBS, blotted dry, and then imaged ex vivo with Optix-MX3 as described above. Images were analyzed as described above.
(§2) The pharmacokinetics of probe uptake and clearance was also characterized using a three-compartment mathematical model, which includes tumor, kidney and mouse volumes, and assumes mass conservation of the ligand. This model was used to account for the interference of the tumor ligand release in the uptake and clearance dynamics of blood and kidneys.

[2] = mouse, in vivo
Method: as §1, §2

[3] = system: A375/MC1R and A375 xenograft tumors; test: Tumor xenograft fluorescence imaging, in vivo tumor targeting and blocking; set-up: species or system nu/nu mice
Method: Female nu/nu mice 6-8 weeks old (Harlan Sprague Dawley, Inc., Indianapolis, Ind.) were injected subcutaneously (s.c.) with 1×10^6 MC1R expressing A375 cells in the right and the parental one in the left flank. Tumor volume was determined with calipers using the formula: volume=(length×width^2)/2. Once tumors reached 500-800 mm^3, 1 nmol/kg-30 nmol/kg of MC1R imaging probe in 100 µL sterile saline was injected into the tail vein. In vivo fluorescence images were acquired using the Optix-MX3 (Advance Research Technologies, Inc. a subsidiary of SoftScan Healthcare Group, Montreal, Canada). Animals were positioned on a heating pad and anesthetized using isoflurane (flow 2-2.5 l/min). Fluorescence images were acquired using a scan resolution of 1.5 mm and a 790-nm pulsed laser diode with 40 MHz frequency and 12-ns time window. Images were analyzed using Optix-MX3 Optiview Software (version 3.01). Autofluorescence background was subtracted by determining the mean tumor fluorescence signal prior to injection, then mean normalized intensity values were obtained within a ROI on these images.
Tumors were excised and center slice of each tumor was imaged using both Optix-MX3 (as described above) and IVIS 200 imaging system (Caliper LifeSciences, MA). For IVIS 200 acquisitions, the standard ICG excitation and emission filter set was used for imaging. After imaging, the slices were fixed in formalin and embedded in paraffin for histology. Formalin fixed sections (5 µm) were stained with hematoxylin and eosin (H&E). […]
To investigate tumor targeting of the probe in vivo, bilateral subcutaneous xenograft tumors were established with A375/MC1R engineered cells in the right flank, and A375 parental cells with relatively low MC1R expression in the left flank. After tumor growth to approximately 500-800 mm^3, MC1RL-800 was injected intravenously and fluorescence accumulation was monitored over time. […] IHC staining confirmed the high and low MC1R expression in the two tumor types, and areas with the highest IHC staining corresponded to areas with the highest fluorescence signal (FIG. 27B).

A375/MC1R cells = test: In vitro MC1R probe uptake study (fluorescence microscopy); type: cell-based, human
Method: Samples were viewed using an Axio Observer Z1 inverted fluorescence microscope (Carl Zeiss, Inc, Germany) using 40×/1.3NA oil immersion objectives through a narrow band Cy5 filter. Cy5 fluorescence images were prepared with a DIC overlay image using Axiovision 4.6 software (Carl Zeiss, Inc, Germany).
To study uptake of the MC1R probe onto and into cells, MC1RL-800 probe was incubated with live cells and images were acquired at different time-points after incubation using an inverted microscope.

[4] = type: physicochemical; settings: pH 7.4
Method: The log of the octanol-water partition coefficient at pH 7.4 (log D7.4) was determined by miniaturised shake flask assay. Briefly, (200 µL to 1 mL) n-octanol (Sigam) was added to a solution of the test compound prepared in PBS (25 mM NaH2PO4/Na2HPO4 buffer, pH 7.4, Sigma, HPLC grade). Then, three different ratios of octanol to PBS buffer were prepared. The mixture was stirred in a vortex mixer at room temperature for 1 min and then two layers were separated by centrifuge. The concentration of compound in each layer was determined by HPLC (Poroshell 120 EC-C18 column) using (26% acetonitrile in water, 0.1% TFA) in 280 nm channel. All sample injections were performed 3 times, and the results were averaged to yield the final values.
To measure lipophilicity of the probe, log D (distribution co-efficient) was determined.

[5] = co-injection 0.25 μg NDP-a-MSH with 5 nmol/kg probe, 2 hr
[6] = A375/MC1R cells, after incubation

Sequence of MC5R (P33032 whole entry): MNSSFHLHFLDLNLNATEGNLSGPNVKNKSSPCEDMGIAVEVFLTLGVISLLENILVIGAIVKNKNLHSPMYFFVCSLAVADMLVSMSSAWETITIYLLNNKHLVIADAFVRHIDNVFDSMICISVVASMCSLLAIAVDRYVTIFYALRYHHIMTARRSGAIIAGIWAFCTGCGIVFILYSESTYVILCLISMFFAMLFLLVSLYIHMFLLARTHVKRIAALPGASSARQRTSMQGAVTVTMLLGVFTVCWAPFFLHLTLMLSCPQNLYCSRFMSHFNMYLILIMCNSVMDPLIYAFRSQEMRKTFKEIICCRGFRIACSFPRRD
Sequence of MC1R (Q01726 whole entry): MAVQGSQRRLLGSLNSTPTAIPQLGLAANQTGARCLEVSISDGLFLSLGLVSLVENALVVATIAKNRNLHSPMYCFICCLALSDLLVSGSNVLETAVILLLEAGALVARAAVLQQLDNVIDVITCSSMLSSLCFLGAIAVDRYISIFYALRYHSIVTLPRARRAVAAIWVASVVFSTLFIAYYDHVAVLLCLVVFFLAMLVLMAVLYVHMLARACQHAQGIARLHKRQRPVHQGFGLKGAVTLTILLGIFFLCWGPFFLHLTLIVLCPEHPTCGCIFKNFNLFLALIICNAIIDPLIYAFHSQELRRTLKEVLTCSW
Sequence of MC4R (P32245 whole entry): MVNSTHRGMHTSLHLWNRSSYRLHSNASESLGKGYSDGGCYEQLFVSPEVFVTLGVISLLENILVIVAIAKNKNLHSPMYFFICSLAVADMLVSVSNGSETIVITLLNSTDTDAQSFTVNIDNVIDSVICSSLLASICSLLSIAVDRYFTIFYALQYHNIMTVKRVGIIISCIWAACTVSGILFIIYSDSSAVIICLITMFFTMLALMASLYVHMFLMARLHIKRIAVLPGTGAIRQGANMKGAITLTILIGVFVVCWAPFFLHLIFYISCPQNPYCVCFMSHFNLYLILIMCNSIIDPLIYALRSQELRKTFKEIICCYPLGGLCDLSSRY

NC(=O)[C@H](Cc1c[nH]c2ccccc12)NC(=O)[C@H](CCCN=C(N)N)NC(=O)[C@@H](Cc1ccccc1)NC(=O)[C@H](Cc1cnc[nH]1)NC(=O)CCCc1ccccc1 [Compound 1, 4-phenylbutyryl-His-DPhe-Arg-Trp-NH2]
Ki (MC1R; read-out: Ki MC1R (values derived from literature)): 0.01 nM

CCCC[C@H](NC(=O)[C@@H](NC(=O)[C@@H](N)Cc1ccc(O)cc1)C(C)C)C(=O)NCC(=O)N[C@@H](Cc1cnc[nH]1)C(=O)N[C@H](Cc1ccc2ccccc2c1)C(=O)N[C@@H](CCCN=C(N)N)C(=O)N[C@H](Cc1c[nH]c2ccccc12)C(=O)N[C@@H](CC(=O)O)C(=O)N[C@@H](CCCN=C(N)N)C(=O)N[C@@H](Cc1ccccc1)C(=O)NCC(N)=O [Compound 5, H-Tyr-Val-Nle-Gly-His-DNal(2′)-Arg-DTrp-Asp-Arg-Phe-Gly-NH2]
EC50 (MC5R): 3.5 nM

CCCC[C@H](NC(=O)[C@@H](NC(=O)[C@@H](N)Cc1ccc(O)cc1)C(C)C)C(=O)NCC(=O)N[C@@H](Cc1cnc[nH]1)C(=O)N[C@H](Cc1ccc2ccccc2c1)C(=O)N[C@@H](CCCNC(=N)N)C(=O)N[C@H](Cc1ccccc1)C(=O)N[C@@H](CC(=O)O)C(=O)N[C@@H](CCCNC(=N)N)C(=O)N[C@@H](Cc1ccccc1)C(=O)NCC(N)=O [Compound 7, H-Tyr-Val-Nle-Gly-His-DNal(2′)-Arg-DPhe-Asp-Arg-Phe-Gly-NH2] (H-YV[Nle]GH[d2Nal]R[dF]DRFG-NH2)
EC50 (MC1R; footnote: value denotes an EC50, read-out: EC50 MC1R (values derived from literature)): 1.6 nM | EC50 (MC4R): 20 nM | EC50 (MC5R): 3.3 nM

CC1(C)C(=CC=C2CCCC(C=CC3=[N+](CCCCCC(=O)NCCN4C(=O)CC(SCCC(=O)NCCCC[C@H](NC(=O)CNC(=O)[C@H](Cc5c[nH]c6ccccc56)NC(=O)[C@H](CCCNC(=N)N)NC(=O)[C@@H](Cc5ccccc5)NC(=O)[C@H](Cc5c[nH]cn5)NC(=O)CCCc5ccccc5)C(N)=O)C4=O)c4ccc(S(=O)(=O)[O-])cc4C3(C)C)=C2Oc2ccc(S(=O)(=O)O)cc2)N(CCCCS(=O)(=O)O)c2ccc(S(=O)(=O)O)cc21 (stereo partly drawn) [MC1RL-800, 4-phenylbutyryl-His-DPhe-Arg-Trp-Gly-Lys(Mpr-IR800CW)-NH2]
half-life [1]: ~10 h | accumulation in the liver [2]: did not accumulate | kidney signal relative to tumor [2]: 2 fold | normalized fluorescence signal of A375 (low MC1R) tumors compared to A375/MC1R tumors ([3]; 2 h post-injection, n=3): significantly lower | decrease of probe fluorescence signal after blocking, A375/MC1R tumors [3, 5]: 1.54 fold | decrease of probe fluorescence signal after blocking, A375 tumor [3, 5]: 1.4 fold | probe binding after blocking with NDP-α-MSH (A375/MC1R cells; 2 μM NDP-α-MSH added before probe): No attachment; also recorded: No binding or uptake | time at which binding of probe to cell surface is observed (A375/MC1R cells; [6]): ≤ 15 s | time of intracellular accumulation / internalization (A375/MC1R cells; [6]): ≤ 5 min | logD [4]: -2.96
